Test results: patent US6962909B2, “Treatment of neovascularization disorders with squalimine” (Genaera Corporation, priority 1995, dated 2005)

Columns and labels:
[1] = system: PHA-stimulated human lymphocytes; assay: Inhibition of mitogen-stimulated growth of human T-cells; format: cell-based; conditions: 72 hours
Procedure: Human heparinized blood, freshly collected, was introduced into tissue culture flasks containing 10 μg/ml phytohaemagglutinin (PHA) in RPMI medium with 10% FCS. Various purified steroids were introduced subsequently at concentrations of 1, 5, and 10 μg/ml. Cultures were incubated for 72 hours, after which time colcemid was added to 1 μg/ml. Cultures were maintained for an additional 2 hours, and cells collected. Mitotic figures were estimated using standard cytochemical techniques, following Giemsa staining.

[2] = system: vitelline capillaries of 3- to 5-day chick embryo; assay: Chick embryo vitelline capillary regression assay; format: in vivo; set-up: key to Vascular reactivity (capillary regression): + = Vascular reactivity; 0 = No vascular reactivity; +/− = Equivocal reactivity; conditions: for Vascular reactivity (capillary regression): 60 minutes
Method in brief: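 Compounds were applied onto the 3- to 5-day embryo in 0.1 ml 15% Ficol 400 in PBS. Vascular regression was assessed visually after 60 min, scoring capillary constriction and pinching-off into enclosed blood-island-like sacs.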

[3] = system: PHA-stimulated human lymphocytes; assay: Inhibition of mitogen-stimulated growth of human T-cells; format: cell-based; conditions: Lymphocyte, 10 μg/ml, read-out: Inhibition of blast transformation
[4] = Fasting blood glucose in mice; format: in vivo; conditions: for Fasting Blood Glucose Mean + SEM: male CD-1 mice, 2 × 10 mg/kg i.v. (total 20 mg/kg), overnight fast, blood 30 min. after 2d dose, 1437 and 1256 in H2O, 1436 in D5W
Procedure: To study the effect of steroid administrator or the NHE responsible for secretion of insulin, several of the aminosterols from shark liver were administered to fasting mice. Male CD-1 mice were assigned to one of four treatment groups. Whole blood glucose was tested using glucometer (Lifescan Glucometer II and One Touch test strips). Statistical analysis was via one-way analysis of variance (ANOVA) followed by subsequent Bonferonni's t-test.

[5] = system: PHA-stimulated lymphocytes; assay: Viability of lymphocytes in the HIV replication test; format: cell-based
Procedure: PHA-stimulated lymphocytes were inoculated with a clinical isolate of HIV at a multiplicity of infection of […]. Fresh lymphocytes were obtained and stimulated with PHA and IL-2. After 3 days, 1000 TCID of virus-(HIV clinical isolate) were applied for 1 hour and there was a M.O.I. of 1:10. The cells were washed and in a dose response fashion, and drug in media was applied. After 3 days, the supernatant was exchanged with ½ volume of fresh media and ½ the volume of fresh drug. After 7 days, detergent was added, and HIV P-24 Antigen was determined by Elisa. Viability of the lymphocytes was evaluated along with appearance of the viral gene product p24.

[6] = system: L1210 lymphoblastic leukemia cells; assay: Mouse model of L1210 leukemia
Procedure: C57B mice were inoculated with L1210 lymphoblastic leukemia cells at an inoculum that causes leukemia in 100% of animals. Mice received compound 1436 at 1, 5, 10 mg/kg every 3 days intraperitoneally.
Of particular interest is the hematological profile determined during the course of treatment. Animals were treated with cisplatin and compound 1436.

[7] = system: Stage 59-60 Xenopus tadpoles; assay: Xenopus tadpole assay; format: in vivo, Xenopus laevis; conditions: 10 μg/ml in water; for Pharmacological response observed in tadpole: about 1 hour
Method in brief: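 Stage 59-60 Xenopus laevis tadpoles placed in compound dissolved in distilled water at 10 μg/ml, allowing oral uptake and systemic exposure. After 1 hour, capillary blood-flow occlusion in the tail was scored by inverted microscopy (~100×) plus gross observation.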

B16 melanoma = assay: Growth of B16 melanoma in C57B mice; format: in vivo
Procedure: The growth of B16 melanoma in C57B mice is dependent upon neovascularization.
Using the growth of B16 melanoma cells in C57B mice, a recognized model for the evaluation of inhibitors of angiogenesis on the growth of cancers, the effects of subcutaneous, intraperitoneal and oral administration of squalamine were evaluated.
Animals were implanted with B16 melanoma followed by treatment with compound 1436 or 1256 administered in a combined schedule or separately. […] Thus, a combination of these two compounds achieves a therapeutic benefit in tumors dependent on neovascularization that may prevent metastatic spread.

[8] = system: human microvascular cells; assay: Endothelial cord formation assay; format: cell-based
Method in brief: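 Human microvascular endothelial cells plated on collagen matrix with VEGF and basic fibroblast growth factor; compound effect assessed on resulting cord-like tubular structures.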

[9] = mice with 5 × 10^5 L1210 cells ip, cisplatin 8 mg/kg ip, compound 1436 10 mg/kg ip q4d

## CC(CC[C@@H](OS(=O)(=O)O)C(C)C)[C@H]1CCC2C3C(CC[C@@]21C)[C@@]1(C)CC[C@H](NCCCNCCCCNCCCN)C[C@@H]1C[C@H]3O (stereo partly shown) [Compound 1436]
[1]; 1 μg/ml
  Inhibition of PHA-stimulated human lymphocytes: 20 % control
[1]; 5 μg/ml
  Inhibition of PHA-stimulated human lymphocytes: 50 % control
[1]; 10 μg/ml
  Inhibition of PHA-stimulated human lymphocytes: 80 % control
[2]; 0.001 μg applied
  Vascular reactivity (capillary regression): +/−
[2]; 0.01 μg applied
  Vascular reactivity (capillary regression): +
[2]; 0.1 μg applied
  Vascular reactivity (capillary regression): +
[2]; 1 μg applied
  Vascular reactivity (capillary regression): +
[2]; 10 μg applied
  Vascular reactivity (capillary regression): +
[2]; in vivo
  Effect on chick embryo capillary bed: causes vitelline capillary regression with about the same potency as squalamine
[3]
  inhibition at 10 µg/mL: > 75%
[4]; intravenous, 1436 in D5W (5% glucose), 1437 in water
  Effect on blood glucose: caused hyperglycemia in mice
[4]
  Fasting Blood Glucose Mean + SEM: 105 ± 8.0 mg/dL
[5]; 10 μg/ml
  Lymphocyte viability retained: 95%
[5]; Conc. 0.5 μM
  % Viability: 91%
[5]; Conc. 10 μM
  % Viability: 95%
[5]; Conc. 20 μM
  % Viability: 90.1%
[6]; highest dose (10 mg/kg every 3 days intraperitoneally)
  Survival of leukemic mice: significant prolongation of life
[6]; [9]
  RBC, Early Time: 4.8 10^6/mm^3
  RBC, Late Time: 8.8 10^6/mm^3
  WBC, Early Time: 3.3 10^3/mm^3
  WBC, Late Time: 3.7 10^3/mm^3
[7]
  Pharmacological category in tadpole assay (similarity to a reference steroid): common vascular occlusive effect
  Time to death of tadpole: about 2 hours
  Pharmacological response observed in tadpole: Gradual reduction in overall activity. Heart beat remained strong, suggesting nervous system depression. Melanocytes over head and tail began to swell, first exhibiting visibly distinct nuclei, followed by rupture into fragments
[7]; listed as compound 1436
  Pharmacological response observed in tadpole: dramatic disruption of melanocytes over its head, trunk, and tail, along with depression of its nervous system
B16 melanoma; compound 1436 10 mg/kg/every 3 days alone
  Impact on tumor volume: no significant impact on tumor volume

## CC(CC[C@@H](OS(=O)(=O)O)C(C)C)[C@H]1CCC2C3C(CC[C@@]21C)[C@@]1(C)CC[C@H](NCCCNCCCCN)C[C@@H]1C[C@H]3O (stereo partly shown) [squalamine]
[1]; 1 μg/ml
  Inhibition of PHA-stimulated human lymphocytes: 3 % control
[1]; 5 μg/ml
  Inhibition of PHA-stimulated human lymphocytes: 8 % control
[1]; 10 μg/ml
  Inhibition of PHA-stimulated human lymphocytes: 10 % control
[2]; 0.001 μg applied
  Vascular reactivity (capillary regression): 0
[2]; 0.01 μg applied
  Vascular reactivity (capillary regression): +
[2]; 0.1 μg applied
  Vascular reactivity (capillary regression): +
[2]; 1 μg applied
  Vascular reactivity (capillary regression): +
[2]; 10 μg applied
  Vascular reactivity (capillary regression): +
[4]
  Fasting Blood Glucose Mean + SEM: 65 ± 7.3 mg/dL
[8]
  Concentration that inhibits cord formation: about 0.1 μg/ml
[8]; 0.01 μg/ml
  Effect on endothelial cord formation: −
[8]; 0.1 μg/ml
  Effect on endothelial cord formation: +
[8]; 1.0 μg/ml
  Effect on endothelial cord formation: +
[8]; 10.0 μg/ml
  Effect on endothelial cord formation: +
[7]
  Pharmacological category in tadpole assay (similarity to a reference steroid): common vascular occlusive effect
  Time to death of tadpole: ≤ 2 h
  Pharmacological response observed in tadpole: blood flow through the capillaries of the tail shut down
[7]; listed as Compound 1256
  Pharmacological response observed in tadpole: Vascular occlusion in fine capillaries of tail
B16 melanoma; during squalamine treatment
  Body weight and hematologic parameters: no significant depression
B16 melanoma; squalamine 5 mg/kg/day alone
  Impact on tumor volume: no significant impact on tumor volume
B16 melanoma; squalamine intraperitoneally
  Suppression of tumor volume: dose-dependent suppression of tumor volume
B16 melanoma; squalamine orally
  Suppression of tumor volume: dose-dependent suppression of tumor volume
B16 melanoma; squalamine subcutaneously
  Suppression of tumor volume: dose-dependent suppression of tumor volume
